Results from US20250034108A1, “SODIUM CHANNEL BLOCKERS” (NOVARTIS AG, priority 2023, published 2025).

Assays:
Type in all cases: cell-based
human Nav1.5 [1] = molecular target: T1, human Nav1.5 (Homo sapiens (Human), UniProt Q14524); assay: Qpatch automated patch-clamp, peak Nav1.5 current inhibition, 1 Hz sinus rate, ventricular condition (holding potential -100 mV); conditions: CHO-K1 cells stably expressing human Nav1.5, without ATX-II
Text: (§1) Electrophysiology was used to measure the ionic currents in isolated living cells using automated patch-clamp recording, performed using an automated patch-clamp machine called Qpatch (Sophion Bioscience). Two different assay conditions were used to identify compounds with atrial-selective potential. The 5-Hz AF-like assay has more depolarized holding potential at −85 mV to mimic atrial resting membrane potential (RMP) and was used to identify compounds of strong rate-dependence. Active, rate-dependent compounds were then screened at 1 Hz (i.e., sinus rate) at the holding potential of −100 mV to mimic the ventricular scenario and help identify compounds with the largest potency separation or attenuation from the 5-Hz AF-like assay. Such compounds have the potential for treating AF without the QRS liability inherent to Class Ic drugs.
(§2) The sodium current conducted through a cell (via Nav1.5) or electrical signals were processed through a low-pass filter at 5 KHz, re-digitalized and acquired at 20 kHz. Series resistance was not compensated and leak subtraction was performed.
(§3) 1 to 3 million Chinese Hamster Ovary cells (also known as CHO-K1) stably expressing human Nav1.5 were seeded into […] culture flasks with 25 mL medium (consisting of Gibco Dulbecco's Modified Eagle Medium as a base medium with 1% MEM non-essential amino acids, 400 μg/mL Geneticin, 5 μg/mL puromycin and 10% fetal bovine serum) 48-72 hours prior to the experiments. On the day of the experiment, cells were washed once with phosphate-buffered saline (also known as PBS; Gibco) detached with Detachin™ (Genlantis), and re-suspended in CHO—S-SFM II media (Gibco) at 200,000 cells/mL. The CHO—S-SFM II was replaced with assay solutions prior to the assays. Whole-cell currents were recorded at room temperature in the whole-cell configuration. The external aqueous assay solution (pH=7.4; Osm=307-315) contained the following (the concentration for each component is expressed in parentheses in mM): NaCl (140 mM), KCl (4 mM), CaCl2) (2 mM), MgCl2 (1 mM), 4-(2-hydroxyethyl)-1-piperazineethanesulfonic acid, also known as HEPES (10 mM), and glucose (5 mM). The internal aqueous assay solution (pH=7.2; Osm=292-295) contained the following (the concentration for each component is expressed in parentheses in mM): CsF (110 mM), CsCl (10 mM), NaCl (10 mM), HEPES (10 mM), and ethylene glycolbis(β-aminoethyl ether)-N,N,N′,N′-tetraacetic acid, also known as EGTA (10 mM).
(§4) To assess peak Nav1.5 current inhibition mimicking a ventricular condition at sinus rate with or without ATX-II (Nav1.5 IC50 (1 Hz, ATXII) (μM) or (1 Hz, Sinus Rate) (μM)), compounds were first prepared at 10 mM in DMSO, and cells were pre-incubated with test compounds at each concentration for 3 min. in an ascending order of 0, 0.37, 1.1, 3.3, 10 and 30 uM. In the assay with ATX-II (Alomone Labs), 50 nM ATX-II was included during the 3-min. compound incubation. A square pulse (−10 mV; 400 ms and a holding potential at −100 mV) was run at 1 Hz for 25 s until no further inhibition or Nav1.5 current change was observed. The percent inhibition (expressed as ([Iafter compound treatment/Ibefore compound treatment]×100%) is calculated by normalizing the peak current amplitude at the last pulse of each of the 6 compound concentrations by the amplitude before exposure to the test compound. The compiled data was further normalized by vehicle control (DMSO) to account for Nav1.5 current run-down, and IC50 was calculated by Matlab (MathWorks, USA).

human Nav1.5 [2] = molecular target: T1, human Nav1.5; assay: Qpatch automated patch-clamp, peak Nav1.5 current inhibition, 5-Hz AF-like assay (holding potential -85 mV); conditions: CHO-K1 cells stably expressing human Nav1.5, holding potential -85 mV, Table 5, read-out: Nav1.5 IC50 (5 Hz, AF Rate)
Text: as §1, §2, §3
To assess peak Nav1.5 current inhibition in an atrial fibrillation-mimicking condition (Nav1.5 IC50 (5 Hz, AF-like rate) (μM)), compounds were first prepared at 10 mM in DMSO, and cells were pre-incubated with test compounds at each concentration for 3 min. in an ascending order of 0, 0.37, 1.1, 3.3, 10 and 30 μM. An atrial action potential-like protocol consisting of a voltage ramp (+10 mV to −85 mV for a 150 ms duration and a holding potential at −85 mV) was then applied to cells at 5 Hz for 12 s until no further current change or inhibition was observed. The percent inhibition (expressed as ([Iafter compound treatment/Ibefore compound treatment]×100%) is calculated by normalizing the peak current amplitude at the last pulse of each of the 6 compound concentrations by the amplitude before exposure to the test compound. The compiled data was further normalized by vehicle control (DMSO) to account for Nav1.5 current run-down, and IC50 was calculated by Matlab (MathWorks, USA).

human Nav1.5 [3] = molecular target: T1, human Nav1.5; assay: Qpatch automated patch-clamp, peak Nav1.5 current inhibition, 1 Hz with 50 nM ATX-II (holding potential -100 mV); conditions: CHO-K1 cells stably expressing human Nav1.5, read-out: Nav1.5 IC50 (1 Hz, ATXII)
Text: as §1, §2, §3, §4

T1 sequence (Q14524 whole entry): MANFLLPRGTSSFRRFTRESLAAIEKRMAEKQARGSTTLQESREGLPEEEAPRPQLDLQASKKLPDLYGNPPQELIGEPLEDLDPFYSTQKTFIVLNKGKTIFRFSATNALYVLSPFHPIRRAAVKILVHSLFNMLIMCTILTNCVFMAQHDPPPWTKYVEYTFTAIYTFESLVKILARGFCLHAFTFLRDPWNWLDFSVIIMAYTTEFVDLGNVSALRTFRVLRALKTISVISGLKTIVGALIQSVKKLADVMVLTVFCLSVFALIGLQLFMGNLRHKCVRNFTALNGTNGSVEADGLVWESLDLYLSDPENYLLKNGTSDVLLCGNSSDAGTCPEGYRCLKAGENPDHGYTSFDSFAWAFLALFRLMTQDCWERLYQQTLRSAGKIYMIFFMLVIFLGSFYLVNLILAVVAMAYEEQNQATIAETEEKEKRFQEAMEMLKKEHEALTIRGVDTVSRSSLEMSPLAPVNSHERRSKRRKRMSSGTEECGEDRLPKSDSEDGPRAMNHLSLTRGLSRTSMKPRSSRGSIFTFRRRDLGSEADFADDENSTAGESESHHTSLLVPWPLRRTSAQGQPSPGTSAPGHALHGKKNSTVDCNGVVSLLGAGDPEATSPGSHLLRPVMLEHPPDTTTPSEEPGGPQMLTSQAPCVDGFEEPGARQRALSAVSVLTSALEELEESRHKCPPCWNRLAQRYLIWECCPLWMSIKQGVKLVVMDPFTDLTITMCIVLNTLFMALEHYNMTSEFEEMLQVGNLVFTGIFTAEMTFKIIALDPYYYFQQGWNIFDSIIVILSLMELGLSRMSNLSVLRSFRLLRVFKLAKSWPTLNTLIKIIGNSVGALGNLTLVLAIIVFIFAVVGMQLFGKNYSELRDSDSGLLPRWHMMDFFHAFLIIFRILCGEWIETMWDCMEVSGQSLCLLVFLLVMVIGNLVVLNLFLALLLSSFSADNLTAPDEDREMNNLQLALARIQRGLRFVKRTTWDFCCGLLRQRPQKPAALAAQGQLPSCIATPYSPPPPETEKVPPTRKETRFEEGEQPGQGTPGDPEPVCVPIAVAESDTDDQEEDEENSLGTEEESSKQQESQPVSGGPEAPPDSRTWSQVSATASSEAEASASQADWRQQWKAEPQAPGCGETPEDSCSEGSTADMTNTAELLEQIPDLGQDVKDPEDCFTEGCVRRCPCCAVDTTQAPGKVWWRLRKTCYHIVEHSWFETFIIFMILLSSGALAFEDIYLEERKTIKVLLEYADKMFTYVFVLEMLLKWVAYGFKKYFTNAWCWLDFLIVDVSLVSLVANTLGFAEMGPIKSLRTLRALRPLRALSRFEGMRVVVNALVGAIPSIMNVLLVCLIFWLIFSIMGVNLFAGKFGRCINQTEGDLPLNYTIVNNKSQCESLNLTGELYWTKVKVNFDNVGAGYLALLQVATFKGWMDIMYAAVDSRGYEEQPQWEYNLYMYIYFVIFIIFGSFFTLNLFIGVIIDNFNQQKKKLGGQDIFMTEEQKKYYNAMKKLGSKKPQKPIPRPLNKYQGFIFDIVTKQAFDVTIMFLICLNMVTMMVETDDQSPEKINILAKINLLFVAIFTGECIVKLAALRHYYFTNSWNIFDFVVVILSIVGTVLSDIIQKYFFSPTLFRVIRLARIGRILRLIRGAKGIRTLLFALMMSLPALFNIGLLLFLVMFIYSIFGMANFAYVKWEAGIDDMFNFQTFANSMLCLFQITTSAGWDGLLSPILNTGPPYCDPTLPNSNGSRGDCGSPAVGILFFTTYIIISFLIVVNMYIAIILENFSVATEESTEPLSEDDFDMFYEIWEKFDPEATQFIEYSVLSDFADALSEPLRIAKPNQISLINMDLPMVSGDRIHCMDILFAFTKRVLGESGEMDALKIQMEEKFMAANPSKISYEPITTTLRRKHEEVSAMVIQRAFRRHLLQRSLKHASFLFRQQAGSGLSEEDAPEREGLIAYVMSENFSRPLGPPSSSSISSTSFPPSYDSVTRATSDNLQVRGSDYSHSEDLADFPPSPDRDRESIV

Compound	IC50 (human Nav1.5 [1]) [µM]	IC50 (human Nav1.5 [2]) [µM]	IC50 (human Nav1.5 [3]) [µM]
CC(O)(CS(N)(=O)=O)c1cccc(-c2nnn(Cc3c(F)ccc4c3OC(F)(F)O4)n2)n1 (single isomer, unassigned) [Example 3, (R or S)-2-hydroxy-2-(6-(2-((2,2,5-trifluorobenzo[d][1,3]dioxol-4-yl)methyl)-2H-tetrazol-5-yl)pyridin-2-yl)propane-1-sulfonamide]	> 30	7.5	
CC(O)(CS(N)(=O)=O)c1cccc(-c2nnn(Cc3c(F)ccc4c3OC(F)(F)O4)n2)n1 (single isomer, unassigned) [Example 4, (R or S)-2-hydroxy-2-(6-(2-((2,2,5-trifluorobenzo[d][1,3]dioxol-4-yl)methyl)-2H-tetrazol-5-yl)pyridin-2-yl)propane-1-sulfonamide]	> 30	6.7	
CC(O)(CS(N)(=O)=O)c1cc(-c2nnn(Cc3cc(OC(F)(F)F)ccc3F)n2)ccc1F (single isomer, unassigned) [Example 5, (R or S)-2-(2-fluoro-5-(2-(2-fluoro-5-(trifluoromethoxy)benzyl)-2H-tetrazol-5-yl)phenyl)-2-hydroxypropane-1-sulfonamide]	> 30	7.9	
CC(O)(CS(N)(=O)=O)c1cc(-c2nnn(Cc3cc(OC(F)(F)F)ccc3F)n2)ccc1F (single isomer, unassigned) [Example 6, (R or S)-2-(2-fluoro-5-(2-(2-fluoro-5-(trifluoromethoxy)benzyl)-2H-tetrazol-5-yl)phenyl)-2-hydroxypropane-1-sulfonamide]	> 30	7.9	
CC(c1cccc(-c2nnn(Cc3cc(OC(F)(F)F)ccc3F)n2)n1)C(CO)S(N)(=O)=O (single isomer, unassigned) [Example 31, (2R or 2S, 3R or 3S)-3-(6-(2-(2-fluoro-5-(trifluoromethoxy)benzyl)-2H-tetrazol-5-yl)pyridin-2-yl)-1-hydroxybutane-2-sulfonamide]	7.8	1.1	
CC(c1cccc(-c2nnn(Cc3cc(OC(F)(F)F)ccc3F)n2)n1)C(CO)S(N)(=O)=O (single isomer, unassigned) [Example 32, (2R or 2S,3R or 3S)-3-(6-(2-(2-fluoro-5-(trifluoromethoxy)benzyl)-2H-tetrazol-5-yl)pyridin-2-yl)-1-hydroxybutane-2-sulfonamide]	28	2.7	
CC(c1cccc(-c2nnn(Cc3cc(OC(F)(F)F)ccc3F)n2)n1)C(CO)S(N)(=O)=O (single isomer, unassigned) [Example 33, (2R or 2S,3R or 3S)-3-(6-(2-(2-fluoro-5-(trifluoromethoxy)benzyl)-2H-tetrazol-5-yl)pyridin-2-yl)-1-hydroxybutane-2-sulfonamide]	6.7	1.3	
CC(c1cccc(-c2nnn(Cc3cc(OC(F)(F)F)ccc3F)n2)n1)C(CO)S(N)(=O)=O (single isomer, unassigned) [Example 34, (2R or 2S, 3R or 3S)-3-(6-(2-(2-fluoro-5-(trifluoromethoxy)benzyl)-2H-tetrazol-5-yl)pyridin-2-yl)-1-hydroxybutane-2-sulfonamide]	> 30	2.2	
CC(O)(CS(N)(=O)=O)c1cccc(-c2nc(Cc3cc(OC(F)(F)F)ccc3F)no2)n1 (single isomer, unassigned) [Example 58, (R or S)-2-(6-(3-(2-fluoro-5-(trifluoromethoxy)benzyl)-1,2,4-oxadiazol-5-yl)pyridin-2-yl)-2-hydroxypropane-1-sulfonamide]		5	> 30
CC(O)(CS(N)(=O)=O)c1cccc(-c2cn(Cc3cc(OC(F)(F)F)ccc3F)nn2)n1 (single isomer, unassigned) [Example 59, (R or S)-2-(6-(1-(2-fluoro-5-(trifluoromethoxy)benzyl)-1H-1,2,3-triazol-4-yl)pyridin-2-yl)-2-hydroxypropane-1-sulfonamide]		3.4	8.6
CC(O)(CS(N)(=O)=O)c1cccc(-c2cn(Cc3cc(OC(F)(F)F)ccc3F)nn2)n1 (single isomer, unassigned) [Example 60, (R or S)-2-(6-(1-(2-fluoro-5-(trifluoromethoxy)benzyl)-1H-1,2,3-triazol-4-yl)pyridin-2-yl)-2-hydroxypropane-1-sulfonamide]		7	16
CC(O)(CS(N)(=O)=O)c1cccc(-c2cnn(Cc3cc(OC(F)(F)F)ccc3F)n2)n1 (single isomer, unassigned) [Example 61, (R or S)-2-(6-(2-(2-fluoro-5-(trifluoromethoxy)benzyl)-2H-1,2,3-triazol-4-yl)pyridin-2-yl)-2-hydroxypropane-1-sulfonamide]		5	> 30
CC(O)(CS(N)(=O)=O)c1cccc(-c2nnn(Cc3cc(OC(F)(F)F)ccc3F)n2)c1 (single isomer, unassigned) [Rac-25 + 26, (R or S)-2-(3-(2-(2-fluoro-5-(trifluoromethoxy)benzyl)-2H-tetrazol-5-yl)phenyl)-2-hydroxypropane-1-sulfonamide]		2.2	> 30
CC(O)(CS(N)(=O)=O)c1cccc(-c2nnn(Cc3cc(OCC(F)(F)F)ccc3F)n2)n1 (single isomer, unassigned) [Rac-29+30, (R or S)-2-(6-(2-(2-fluoro-5-(2,2,2-trifluoroethoxy)benzyl)-2H-tetrazol-5-yl)pyridin-2-yl)-2-hydroxypropane-1-sulfonamide]		2.5	3
CC(O)(CS(N)(=O)=O)c1cccc(-c2ccn(Cc3cc(OC(F)(F)F)ccc3F)n2)n1 (single isomer, unassigned) [Rac-37 + 38, (R or S)-2-(6-(1-(2-fluoro-5-(trifluoromethoxy)benzyl)-1H-pyrazol-3-yl)pyridin-2-yl)-2-hydroxypropane-1-sulfonamide]		2.3	> 30
CC(O)(CS(N)(=O)=O)c1cccc(-c2cn(Cc3cc(OC(F)(F)F)ccc3F)nn2)n1 (single isomer, unassigned) [Rac-59 + 60, (R or S)-2-(6-(1-(2-fluoro-5-(trifluoromethoxy)benzyl)-1H-1,2,3-triazol-4-yl)pyridin-2-yl)-2-hydroxypropane-1-sulfonamide]		5.2	15
C[C@@](O)(CS(N)(=O)=O)c1cccc(-c2nnn(Cc3cc(OC(F)(F)F)ccc3F)n2)n1 [Example 2, (S)-2-(6-(2-(2-fluoro-5-(trifluoromethoxy)benzyl)-2H-tetrazol-5-yl)pyridin-2-yl)-2-hydroxypropane-1-sulfonamide]		4.7	> 30
